Test results taken from the NIST ThermoML archive (doi:10.1016/j.jct.2004.12.005).

Experiments:
[1] = 298.15 K; 101.33 kPa; Liquid
[2] = excess molar enthalpy (molar enthalpy of mixing); xn = mol fraction of the nth substance listed; conditions: 298.15 K, 101.3 kPa, Liquid, Flow calorimetry

COC(C)(C)C [2-methoxy-2-methylpropane]
Conditions | mass density [kg/m3]
[1] | 735.99

COC(C)(C)C [2-methoxy-2-methylpropane] + C1CCOC1
[2]
Conditions | excess molar enthalpy [kcal/mol]
x2 = 0.1015 | 0.0082
x2 = 0.1924 | 0.0143
x2 = 0.2745 | 0.0186
x2 = 0.3482 | 0.0216
x2 = 0.4173 | 0.0234
x2 = 0.4784 | 0.0244
x2 = 0.5358 | 0.0248
x2 = 0.5883 | 0.0243
x2 = 0.6368 | 0.0233
x2 = 0.6821 | 0.0221
x2 = 0.7242 | 0.0206
x2 = 0.7626 | 0.0188
x2 = 0.7994 | 0.0168
x2 = 0.8338 | 0.0146
x2 = 0.8655 | 0.0123
x2 = 0.8799 | 0.0112
x2 = 0.9246 | 0.00739
x2 = 0.9507 | 0.00473
x2 = 0.9761 | 0.00241

CC1CCCO1 (configuration not stated) [2-methyltetrahydrofuran]
Conditions | mass density [kg/m3]
[1] | 848.1

CC1CCCO1 (configuration not stated) [2-methyltetrahydrofuran] + COC(C)(C)C
[2]
Conditions | excess molar enthalpy [kcal/mol]
x1 = 0.0499 | 0.00159
x1 = 0.0998 | 0.00298
x1 = 0.1498 | 0.00424
x1 = 0.2002 | 0.00541
x1 = 0.2501 | 0.00635
x1 = 0.3004 | 0.00717
x1 = 0.3504 | 0.00788
x1 = 0.4001 | 0.00821
x1 = 0.4501 | 0.00859
x1 = 0.5007 | 0.00875
x1 = 0.5495 | 0.00884
x1 = 0.5999 | 0.00859
x1 = 0.6501 | 0.00815
x1 = 0.7002 | 0.00753
x1 = 0.7508 | 0.00673
x1 = 0.8 | 0.00582
x1 = 0.8509 | 0.00473
x1 = 0.9 | 0.00338
x1 = 0.95 | 0.00184

CCCCCCCCCCCC [dodecane]
Conditions | mass density [kg/m3]
[1] | 745.38

C1CCOC1 [tetrahydrofuran]
Conditions | mass density [kg/m3]
[1] | 882.09
